Experimental data: the supplement of paper PMC10307832

Legend:
Assay in all cases: relative viability (nuclei count vs DMSO), 5 days (fraction); higher = more cells survive
[1] = compound: CS(=O)(=O)CCNCc1ccc(-c2ccc3ncnc(Nc4ccc(OCc5cccc(F)c5)c(Cl)c4)c3c2)o1 [Lapatinib] + CC1(C)CCC(c2ccc(Cl)cc2)=C(CN2CCN(c3ccc(C(=O)NS(=O)(=O)c4ccc(N[C@H](CCN5CCOCC5)CSc5ccccc5)c(S(=O)(=O)C(F)(F)F)c4)cc3)CC2)C1 [Navitoclax] (partner 0.5 µM)
In short: (§1)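 Relative viability equals treated-well nuclei counts divided by vehicle-well nuclei counts. Counts came from 4× images of lung cancer cell lines grown in 1536-well plates for 5 days after pin-tool dosing on the day after seeding. Dosing used one drug alone or a fixed anchor-drug dose plus five library-drug doses (not always all listed) in √10 steps, and values are medians of duplicate plates.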

[2] = compound: CS(=O)(=O)CCNCc1ccc(-c2ccc3ncnc(Nc4ccc(OCc5cccc(F)c5)c(Cl)c4)c3c2)o1 [Lapatinib] + NC(=O)Nc1cc(-c2cccc(F)c2)sc1C(=O)N[C@H]1CCCNC1 [AZD7762] (partner 0.2 µM)
In short: as §1

[3] = compound: CC1=NC=CC(=C1)C2=CC=C(C=C2)CC(=O)NC3=CC=C(C=C3)C4=CN=CC=C4 [Wnt-C59] + C[C@]1(O)C[C@@H](c2nc(-c3ccc4ccc(-c5ccccc5)nc4c3)c3c(N)nccn32)C1 [Linsitinib] (partner 1 µM)
In short: as §1

[4] = compound: CC1=NC=CC(=C1)C2=CC=C(C=C2)CC(=O)NC3=CC=C(C=C3)C4=CN=CC=C4 [Wnt-C59] + CC(C)C[C@H](NC(=O)[C@H](Cc1ccccc1)NC(=O)c1cnccn1)B(O)O [Bortezomib] (partner 0.002 µM)
In short: as §1

Row | Cell Line | relative viability ([1]; first compound 0.02 µM) | relative viability ([1]; first compound 0.06325 µM) | relative viability ([1]; first compound 0.2 µM) | relative viability ([1]; first compound 0.6325 µM) | relative viability ([1]; first compound 2 µM) | relative viability ([2]; first compound 0.02 µM) | relative viability ([2]; first compound 0.06325 µM) | relative viability ([2]; first compound 0.2 µM) | relative viability ([2]; first compound 0.6325 µM) | relative viability ([2]; first compound 2 µM) | relative viability ([3]; first compound 0.001 µM) | relative viability ([3]; first compound 0.01 µM) | relative viability ([3]; first compound 0.03162 µM) | relative viability ([3]; first compound 0.1 µM) | relative viability ([4]; first compound 0.001 µM) | relative viability ([4]; first compound 0.01 µM) | relative viability ([4]; first compound 0.03162 µM) | relative viability ([4]; first compound 0.1 µM)
1 | HCC-44 | 0.874 | 0.89 | 0.995 | 0.949 | 0.768 | 0.984 | 1.03 | 1.02 | 1.01 | 0.893 | 0.745 | 0.641 | 0.665 | 0.644 | 0.948 | 0.886 | 0.903 | 0.887
2 | IA-LM | 0.769 | 0.794 | 0.817 | 0.728 | 0.713 | – | – | – | – | – | 0.67 | 0.549 | 0.621 | 0.533 | 0.942 | 0.713 | 0.91 | 0.724
3 | LCLC-103H | – | – | – | – | – | 0.61 | 0.575 | 0.791 | 0.836 | 0.727 | 1.08 | 1.08 | 0.986 | 1.09 | 1.04 | 1.12 | 1.06 | 1.1
4 | LK-2 | 0.908 | – | 0.84 | 0.88 | 0.905 | 0.393 | – | 0.379 | – | 0.636 | 0.529 | 0.708 | 0.563 | 0.582 | – | – | – | –
5 | NCI-H358 | – | – | – | – | – | 0.459 | 0.364 | 0.379 | 0.388 | 0.282 | 0.83 | 0.641 | 0.923 | 0.682 | – | – | – | –
6 | NCI-H520 | 0.951 | 1.06 | 1.08 | 1.25 | 0.972 | – | – | – | – | – | 0.944 | 0.912 | 1.1 | 0.843 | 0.596 | 0.611 | 0.509 | 0.57
7 | NCI-H522 | – | – | – | – | – | – | 0.731 | 0.845 | 1.07 | 0.612 | – | – | – | – | – | – | – | –
8 | NCI-H650 | – | – | – | – | – | – | 0.735 | 1.03 | 1.04 | 0.977 | 0.919 | 0.916 | 0.828 | 0.926 | 0.85 | 1.08 | 0.72 | 0.888
9 | NCI-H661 | – | – | – | – | – | – | – | – | – | – | 0.581 | 0.621 | 0.548 | 0.723 | 0.616 | 0.758 | 0.903 | 0.805
10 | NCI-H1299 | 1.05 | 1.06 | 1.05 | 1.01 | 1.06 | – | – | – | – | – | 0.965 | 1.07 | 0.961 | 1 | 1.02 | 1.06 | 1.02 | 1.01
11 | NCI-H1395 | – | 1.05 | 1.14 | 1.62 | 1.14 | – | 0.364 | 0.428 | 0.383 | 0.414 | 0.972 | 1.06 | 1.09 | 1.03 | – | – | – | –
12 | NCI-H1563 | – | – | – | – | – | – | – | – | – | – | 1.24 | 1.2 | 1.34 | 1.13 | 0.863 | 0.917 | 0.901 | 0.835
13 | NCI-H1648 | – | – | – | – | – | – | 0.921 | 0.612 | 0.643 | 0.658 | – | – | – | – | – | – | – | –
14 | NCI-H1650 | 1.06 | 1.11 | 1.24 | 1.01 | 0.761 | – | – | – | – | – | – | – | – | – | 0.21 | 0.219 | 0.205 | 0.219
15 | NCI-H1793 | – | – | – | 0.329 | 0.292 | – | 0.355 | 0.304 | 0.437 | 0.186 | 0.926 | 0.729 | 0.875 | 0.865 | – | – | – | –
16 | NCI-H1944 | – | – | 0.885 | 0.864 | 0.789 | 0.504 | 0.453 | 0.51 | 0.47 | 0.379 | 1.13 | 1.11 | 1.26 | 1.12 | – | – | – | –
17 | NCI-H2009 | 1.11 | 1.21 | 1.21 | 1.17 | 1.14 | – | – | – | – | – | 1.17 | 1.15 | 1.19 | 1.12 | 1.07 | 1.06 | 1.03 | 0.993
18 | NCI-H2023 | 0.95 | 0.885 | 0.894 | 1 | 0.77 | – | – | – | – | – | 0.736 | 0.58 | 0.648 | 0.631 | 0.979 | 1.1 | 1.05 | 0.821
19 | NCI-H2170 | 0.546 | 0.393 | 0.287 | 0.218 | 0.184 | 0.824 | 0.574 | 0.485 | 0.252 | 0.14 | – | – | – | – | – | – | – | –
20 | NCI-H2228 | 0.838 | 0.807 | 0.809 | 1.28 | 0.912 | – | – | – | – | – | 0.606 | 0.95 | 0.77 | 0.878 | 1.07 | 0.746 | 1.07 | 0.855
21 | NCI-H2342 | – | – | – | – | – | 0.421 | 0.408 | 0.381 | 0.447 | 0.394 | – | – | – | – | – | – | – | –
22 | SK-LU-1 | – | 0.831 | 0.747 | 0.876 | 1.29 | – | – | – | – | – | 1.01 | 1.12 | 1.07 | 1.03 | 1.15 | 1.23 | 1.28 | 1.45
23 | SK-MES-1 | 1.13 | – | 1.25 | 0.783 | 0.573 | – | – | – | – | – | 1.11 | 1.1 | 1.02 | 1.08 | – | – | – | –
24 | SW 900 | – | – | – | – | – | – | 0.549 | 0.549 | 0.591 | 0.466 | – | – | – | – | – | – | – | –
25 | SW 1573 | 0.902 | 0.974 | 1.16 | 0.92 | 0.882 | – | – | – | – | – | 0.696 | 0.806 | 0.874 | 0.862 | 1.04 | 1.1 | 1.11 | 1.04
